In patent US20260325533A1, “CDK INHIBITOR COMPOUNDS” (ALEKSIA THERAPEUTICS, INC., priority 2023, published 2026):
pIC50: −log10 of the molar value. Like-named read-outs stand apart in the source and are kept apart here.

Columns and labels:
Assay type in all cases: biochemical
CDK2/CCNE1 = CDK2/CCNE1 (Homo sapiens, UniProt P24941); experiment: CDK2 homogeneous time-resolved fluorescence (HTRF) kinase assay; conditions: CDK2/CCNE
In short: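 An HTRF format measures CDK2/CCNE1 (3 nM) phosphorylating a 4E-BP1 Thr37/46 peptide at high (1 mM) ATP. Reactions run one hour at 23 °C, then EDTA-quenched and probed with Eu-labelled phospho-specific antibody.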

CDK1/CCNB1 = CDK1/CCNB1 (Homo sapiens, UniProt P06493); experiment: CDK1 homogeneous time-resolved fluorescence (HTRF) kinase assay; conditions: CDK1/CCNB
In short: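 HTRF assay with 0.5 nM CDK1/CCNB1, 1 mM ATP, 50 nM ULight-eIF4E-BP1 (Thr37/46) peptide; compound preincubated 20 min, reaction 60 min at 23 °C, EDTA stop, Eu-anti-phospho antibody detection. 11-point half-log titration from 10 μM, 1% DMSO; IC50 from 665 nm or 665/615 signal.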

CDK4/CCND3 = CDK4/CCND3 (Homo sapiens, UniProt P11802); experiment: CDK4 homogeneous time-resolved fluorescence (HTRF) kinase assay; conditions: CDK4/CCND
In short: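 HTRF kinase assay, CDK4/CCND3 1.5 nM, ATP 1 mM, ULight-4E-BP1 peptide 50 nM, 23 °C, 60 min reaction after 20 min preincubation. Eu-anti-pThr37/46 antibody detection. 11-pt half-log curves from 10 μM → IC50.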

CDK6/CCND1 = CDK6/CCND1 (Homo sapiens, UniProt Q00534); experiment: CDK6 homogeneous time-resolved fluorescence (HTRF) kinase assay; conditions: CDK6/CCND, 1 mM ATP
In short: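 Recombinant CDK6/CCND1 (1 nM final) was preincubated with compound for 20 min at 23 °C in HEPES buffer with MgCl2, EGTA, DTT and Tween 20. Kinase reaction then ran 60 min at 23 °C with 1 mM ATP and 50 nM ULight-4E-BP1 (Thr37/46) peptide, and was stopped with EDTA.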

[1] = <25 nM, read-out: CDK2/CCNE IC50, <25 nM
[2] = >250 nM, read-out: CDK1/CCNB IC50 >250 nM
[3] = 25-250 nM, read-out: CDK4/CCND IC50, 25-250 nM
[4] = 25-250 nM, read-out: CDK6/CCND IC50, 25-250 nM
[5] = >250 nM, read-out: CDK4/CCND IC50, >250 nM
[6] = >250 nM, read-out: CDK6/CCND IC50, >250 nM
[7] = 25-250 nM, read-out: CDK2/CCNE IC50, 25-250 nM

Chain of CDK1/CCNB1 (P06493 whole entry): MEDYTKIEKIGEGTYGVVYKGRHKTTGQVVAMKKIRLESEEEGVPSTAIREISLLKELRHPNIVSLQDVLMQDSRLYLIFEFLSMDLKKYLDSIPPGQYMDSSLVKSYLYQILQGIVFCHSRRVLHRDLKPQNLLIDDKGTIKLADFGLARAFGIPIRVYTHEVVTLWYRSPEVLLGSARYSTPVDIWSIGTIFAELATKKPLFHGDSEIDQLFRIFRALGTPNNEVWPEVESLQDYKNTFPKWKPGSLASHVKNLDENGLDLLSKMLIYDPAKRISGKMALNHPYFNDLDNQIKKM
Chain of CDK1/CCNB1 (P14635 whole entry partner): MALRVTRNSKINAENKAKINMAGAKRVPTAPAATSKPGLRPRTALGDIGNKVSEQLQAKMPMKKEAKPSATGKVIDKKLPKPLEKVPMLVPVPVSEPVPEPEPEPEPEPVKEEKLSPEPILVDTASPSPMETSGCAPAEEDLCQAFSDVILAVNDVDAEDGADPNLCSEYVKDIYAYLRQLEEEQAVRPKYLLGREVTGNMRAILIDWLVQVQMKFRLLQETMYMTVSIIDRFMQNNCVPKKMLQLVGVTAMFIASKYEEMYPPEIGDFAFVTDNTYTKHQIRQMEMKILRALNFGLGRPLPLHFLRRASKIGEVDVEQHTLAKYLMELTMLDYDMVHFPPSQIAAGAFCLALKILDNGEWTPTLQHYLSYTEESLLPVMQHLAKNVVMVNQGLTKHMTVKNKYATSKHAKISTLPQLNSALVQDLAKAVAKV
Chain of CDK4/CCND3 (P11802 whole entry): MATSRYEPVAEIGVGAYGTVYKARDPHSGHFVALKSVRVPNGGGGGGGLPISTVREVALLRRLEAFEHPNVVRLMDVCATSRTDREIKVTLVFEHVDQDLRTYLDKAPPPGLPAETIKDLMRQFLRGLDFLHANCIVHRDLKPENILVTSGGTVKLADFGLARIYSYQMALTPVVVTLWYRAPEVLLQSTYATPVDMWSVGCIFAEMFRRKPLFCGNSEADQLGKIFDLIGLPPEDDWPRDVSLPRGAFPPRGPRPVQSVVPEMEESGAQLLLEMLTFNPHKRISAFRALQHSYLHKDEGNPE
Chain of CDK4/CCND3 (P30281 whole entry partner): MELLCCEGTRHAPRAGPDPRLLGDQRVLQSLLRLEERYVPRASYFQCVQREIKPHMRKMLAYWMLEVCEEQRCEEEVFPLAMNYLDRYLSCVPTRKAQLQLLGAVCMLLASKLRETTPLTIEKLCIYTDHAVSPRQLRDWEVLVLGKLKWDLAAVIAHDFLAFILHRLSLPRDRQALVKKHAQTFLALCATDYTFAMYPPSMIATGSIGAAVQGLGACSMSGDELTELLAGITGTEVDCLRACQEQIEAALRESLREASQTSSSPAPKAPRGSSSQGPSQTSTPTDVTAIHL
Chain of CDK6/CCND1 (Q00534 whole entry): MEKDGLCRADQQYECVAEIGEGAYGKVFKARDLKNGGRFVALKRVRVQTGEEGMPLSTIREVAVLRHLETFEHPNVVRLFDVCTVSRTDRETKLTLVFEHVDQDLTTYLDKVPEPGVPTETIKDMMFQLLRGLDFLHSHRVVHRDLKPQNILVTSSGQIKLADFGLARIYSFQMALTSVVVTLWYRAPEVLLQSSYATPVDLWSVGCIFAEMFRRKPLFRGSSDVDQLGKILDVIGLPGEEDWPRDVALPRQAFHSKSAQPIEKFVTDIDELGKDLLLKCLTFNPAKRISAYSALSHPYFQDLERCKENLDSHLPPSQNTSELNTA
Chain of CDK6/CCND1 (P24385 whole entry partner): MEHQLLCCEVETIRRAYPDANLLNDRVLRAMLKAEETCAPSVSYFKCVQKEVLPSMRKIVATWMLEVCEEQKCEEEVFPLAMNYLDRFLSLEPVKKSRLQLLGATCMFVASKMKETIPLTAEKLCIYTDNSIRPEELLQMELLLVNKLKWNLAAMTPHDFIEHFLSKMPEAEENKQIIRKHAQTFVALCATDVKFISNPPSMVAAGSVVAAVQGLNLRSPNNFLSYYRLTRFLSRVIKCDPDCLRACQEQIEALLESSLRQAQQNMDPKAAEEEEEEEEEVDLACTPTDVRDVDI

Compound | pIC50 (CDK2/CCNE1; [1]) | pIC50 (CDK1/CCNB1; [2]) | pIC50 (CDK4/CCND3; [3]) | pIC50 (CDK6/CCND1; [4]) | pIC50 (CDK1/CCNB1; 25-250 nM, read-out: CDK1/CCNB IC50, 25-250 nM) | pIC50 (CDK4/CCND3; <25 nM, read-out: CDK4/CCND IC50, column <25 nM) | pIC50 (CDK4/CCND3; [5]) | pIC50 (CDK6/CCND1; [6]) | pIC50 (CDK2/CCNE1; [7])
Cc1c(-c2nccc3cnc(Nc4ccc(S(=O)(=O)NC5CCOC5)cc4)cc23)ccc2c1cnn2CC(C)(C)O (racemic) [Ex 770, 4-((5-(1-(2-hydroxy-2-methylpropyl)-4-methyl-1H-indazol-5-yl)-2,6-naphthyridin-3-yl)amino)-N-(tetrahydrofuran-3-yl)benzenesulfonamide] | > 7.60 | < 6.60 | 6.60 to 7.60 | 6.60 to 7.60 | – | – | – | – | –
COc1ccc(C(=O)N2CCC(Nc3cc4c(-c5ccc6c(cnn6CC(C)(C)O)c5C)nccc4cn3)C2)cc1 (racemic) [Ex 884, (3-((5-(1-(2-hydroxy-2-methylpropyl)-4-methyl-1H-indazol-5-yl)-2,6-naphthyridin-3-yl)amino)pyrrolidin-1-yl)(4-methoxyphenyl)methanone] | > 7.60 | < 6.60 | – | – | – | – | < 6.60 | < 6.60 | –
Cc1c(-c2nccc3cnc(NC4CCN(C(=O)c5ccccc5)C4)cc23)ccc2c1cnn2CC(C)(C)O (racemic) [Ex 885, (3-((5-(1-(2-hydroxy-2-methylpropyl)-4-methyl-1H-indazol-5-yl)-2,6-naphthyridin-3-yl)amino)pyrrolidin-1-yl)(phenyl)methanone] | > 7.60 | < 6.60 | – | – | – | – | < 6.60 | < 6.60 | –
Cc1c(-c2nccc3cnc(NC4CCN(C(=O)c5cccnc5)C4)cc23)ccc2c1cnn2CC(C)(C)O (racemic) [Ex 904, (3-((5-(1-(2-hydroxy-2-methylpropyl)-4-methyl-1H-indazol-5-yl)-2,6-naphthyridin-3-yl)amino)pyrrolidin-1-yl)(pyridin-3-yl)methanone] | – | < 6.60 | – | – | – | – | < 6.60 | < 6.60 | 6.60 to 7.60

Next, values leading:

pIC50 (CDK2/CCNE1; [1]) | pIC50 (CDK1/CCNB1; [2]) | pIC50 (CDK4/CCND3; [3]) | pIC50 (CDK6/CCND1; [4]) | pIC50 (CDK1/CCNB1; 25-250 nM, read-out: CDK1/CCNB IC50, 25-250 nM) | pIC50 (CDK4/CCND3; <25 nM, read-out: CDK4/CCND IC50, column <25 nM) | pIC50 (CDK4/CCND3; [5]) | pIC50 (CDK6/CCND1; [6]) | pIC50 (CDK2/CCNE1; [7]) | Compound
> 7.60 | < 6.60 | 6.60 to 7.60 | 6.60 to 7.60 | – | – | – | – | – | Cc1c(-c2nccc3cnc(Nc4ccc(S(=O)(=O)NC5CCN(C)C5)cc4)cc23)ccc2c1cnn2CC(C)(C)O (racemic) [Ex 771, 4-((5-(1-(2-hydroxy-2-methylpropyl)-4-methyl-1H-indazol-5-yl)-2,6-naphthyridin-3-yl)amino)-N-(1-methylpyrrolidin-3-yl)benzenesulfonamide]
> 7.60 | – | – | 6.60 to 7.60 | 6.60 to 7.60 | > 7.60 | – | – | – | Cc1c(-c2nccc3cnc(Nc4ccc(S(=O)(=O)NC5CCNC5)cc4)cc23)ccc2c1cnn2CC(C)(C)O (racemic) [Ex 791, 4-((5-(1-(2-hydroxy-2-methylpropyl)-4-methyl-1H-indazol-5-yl)-2,6-naphthyridin-3-yl)amino)-N-(pyrrolidin-3-yl)benzenesulfonamide]
> 7.60 | < 6.60 | 6.60 to 7.60 | 6.60 to 7.60 | – | – | – | – | – | Cc1c(-c2nccc3cnc(Nc4ccc(S(=O)(=O)NC5CCCNC5)cc4)cc23)ccc2c1cnn2CC(C)(C)O (racemic) [Ex 792, 4-((5-(1-(2-hydroxy-2-methylpropyl)-4-methyl-1H-indazol-5-yl)-2,6-naphthyridin-3-yl)amino)-N-(piperidin-3-yl)benzenesulfonamide]
> 7.60 | < 6.60 | – | – | – | – | < 6.60 | < 6.60 | – | Cc1c(-c2nccc3cnc(NC4CCN(C(=O)c5ccc(Cl)cc5)C4)cc23)ccc2c1cnn2CC(C)(C)O (racemic) [Ex 903, (4-chlorophenyl)(3-((5-(1-(2-hydroxy-2-methylpropyl)-4-methyl-1H-indazol-5-yl)-2,6-naphthyridin-3-yl)amino)pyrrolidin-1-yl)methanone]
– | < 6.60 | – | – | – | – | < 6.60 | < 6.60 | 6.60 to 7.60 | Cc1c(-c2nccc3cnc(NC4CCCN(S(C)(=O)=O)C4)cc23)ccc2c1cnn2CC(C)(C)O (racemic) [Ex 918, 2-methyl-1-(4-methyl-5-(7-((1-(methylsulfonyl)piperidin-3-yl)amino)-2,6-naphthyridin-1-yl)-1H-indazol-1-yl)propan-2-ol]
